The text below walks through data of article PMC12980303, “Development of a novel risk score reflecting the relative harm potential of synthetic cannabinoids based on prevalence estimates, well‐documented intoxication cases and basic pharmacological data” (Addiction (Abingdon, England), 2025).

Data set [1] can be described thus: LC–MS/MS analysis of serum and urine samples of intoxication cases. The class given is in vivo, human. The conditions noted are these: patient serum. As to the method: (§1) The data on intoxication cases used for the development of this risk score were obtained from a prospective study. This study included patients who were treated in an emergency department room following the consumption of an NPS. Clinical symptoms and follow‐up information were documented using a structured questionnaire completed by the attending physicians. The methodology has been previously published. Residual serum (obtained from venous blood) and urine samples, accompanied by the completed questionnaires, were sent to the Poisons Information Center Freiburg for further analysis. The toxicological analyses of serum and urine samples were conducted at the Institute of Forensic Medicine Freiburg. No data was available on previous consumption patterns or potential development of tolerance after continued misuse. The study was conducted in accordance with the Declaration of Helsinki and approved by the regional ethics committee of the University of Freiburg (no. 235/13_130683). The intoxication cases included in this study are those in which SCRA use was confirmed by liquid chromatography tandem mass spectrometry (LC–MS/MS).
Serum/blood and urine analyses were conducted at the Institute of Forensic Medicine Freiburg using previously published LC–MS/MS methods, that were modified by adding further analytes present in ‘legal‐high’ products (‘herbal blends’, ‘C‐liquids’ or ‘research chemicals’), and covered approximately 100 different SCRAs. Detailed information can be found in the Supporting Information.
Urine samples were analysed according to previously published and validated method by Franz et al.^2. For sample preparation 0.5 mL of phosphate buffer (pH 6) and 30 μL of β-glucuronidase were added to 0.5 mL of urine. Incubation was for 60 min at 45°C. This was followed by protein precipitation using 1.5 mL acetonitrile containing the internal standard (c = 2 ng/mL) and 0.56 mL 10 M ammonium formate solution, followed by shaking and centrifugation. 1 mL of the organic phase was transferred into an autosampler vial and evaporated to dryness under N2. The samples were reconstituted in 200 μL mobile phase.
Urine sample analysis was performed on a Dionex UltiMate® 3000RS UHPLC (Thermo Scientific, Dreieich, Germany) coupled to an API 5000^TM triple quadrupole instrument with a TurboIonSpray® interface (Sciex, Darmstadt, Germany). Separation was performed on a Luna C18 100 Å (150 x 2 mm, 5 μm) column with the mobile phase consisting of 0.2% HCOOH and 2 mmol/L NH^4+HCOO^− in water (A) and acetonitrile (B).

Data set [2] addresses T1, hCB1 receptor (Homo sapiens, UniProt P21554). The data set is described as follows: competitive [3H]CP‐55940 radioligand binding assay (hCB1 receptor affinity). To be noted: Ki [nM] (95% CI), [3H]CP‐55940 competition, hCB1 membrane preparations (HEK293‐EBNA), Cheng–Prusoff; 95% CI in brackets. As to the method:
(§2) Receptor assays were performed on three different days and each concentration was tested in duplicate.
From the IC50, the respective Ki values were calculated using the Cheng–Prusoff equation [39].

The target in data set [3] is T1, hCB1 receptor. The data set is described as follows: functional [35S]GTPγS hCB1 activation assay. It counts as biochemical. The conditions noted are these: for Emax: read-out: [35S]‐GTPγS assay Emax [%] (95% CI). How it is done: as §2
On the technique in general: GTPγS resists hydrolysis and so accumulates on activated G proteins.

Data set [4] can be described thus: risk score from prevalence in routine forensic samples and intoxication cases (G1, PSS, TSS). Set-up: species or system human. The conditions noted are these: for G total (risk score): G1+G2+G3, higher value = greater toxicological risk; for G2: mean Poison Severity Score (PSS) of all intoxications with the SCRA; for G3: mean Toxicological Significance Score (TSS) of all intoxications with the SCRA; for G1: proportion in intoxication cases relative to prevalence in routine serum/blood and urine samples per quarter, 2013–2021, >1 over‐represented in intoxications. The source says:
Therefore, higher values indicate substances with a higher risk. […] To take into account the severity of symptoms and the contribution of the specific NPS, two further summands were introduced. The first is based on the PSS, the second on the TSS. Again, higher values were associated with more severe symptoms and a stronger role of the NPS in causing the symptoms.
The risk score is composed of three components (parts G1, G2 and G3) and was designed as follows: (1) Gx=G1x+G2x+G3x,
Equation 2 takes into consideration several components: the number of intoxications with SCRA x in quarter k over the total number of intoxications of all investigated SCRAs in the same quarter; the number of serum/blood samples positive for SCRA x over the total number of serum/blood samples positive for all SCRAs plus the number of urine samples positive for SCRA x over the total number of urine samples positive for all SCRAs (this is divided by two to account for the two different sample types); and the number of quarters in which the SCRA x was prevalent. (2) G1x=∑k=1gak/bk/ck/dk+ek/fk/2/h+i
Consequently, equation 2 was mathematically rearranged. To further simplify the equation and reduce the formula signs, in equation 3 the following simplifications were taken: a/b=ai , c/d=as and e/f=au .
The sum of these quotients was divided by the number of all prevalent quarters (q p ). Prevalent quarters were defined as quarters in which on average the substance was detected in more than 5% of the positive serum and urine samples. If a poisoning occurred in a quarter in which the substance was not prevalent, the number of these quarters was added (q i ). This part of the score has similarities with an OR [42]. If the proportion of routine samples in a given quarter in which an intoxication with the respective substance occurred was zero (a s + a u = 0), a value of 0.01 was used for that quarter in the calculation of the quotient to avoid division by zero.
For part G2, the severity of the intoxication caused by the respective SCRA x was assessed on the basis of reported symptoms and follow‐up information using the PSS [20]. The PSS classifies the intoxication severity into five levels: (0) no, (1) mild, (2) moderate, (3) severe, and (4) fatal intoxication. […] For this purpose, the mean value of the PSS of all intoxications with the respective SCRA x was calculated ( G2x) .
For part G3, the involvement of the SCRA in the respective intoxications was assessed. This was evaluated on the basis of the TSS [21]. Elliott et al. developed the TSS to assess and classify the contribution of NPS in fatalities. In the present study, the TSS was determined to weigh the involvement of the investigated SCRA in the intoxication and the contribution of the SCRA to the observed symptoms. To determine the TSS value, factors such as the determined concentration of the SCRA, the presence of other recreational drugs or medicinal drugs, the general health of the patient and the consumption circumstances need to be considered. […] In cases with more than one drug detected, a TSS of 3 was only assigned where other compounds were present at concentrations below the range in which relevant effects are to be expected.
For the risk score, the mean value of the TSS of all intoxications with substance x was calculated ( G3x) . Analogous to the value of G2x , the value of G3x can theoretically be between 1 and 3. With a value of ‘1’, substance x was not mainly responsible for the symptoms in all of the intoxications (low level of significance), and with a value of ‘3’, it was the main cause in every poisoning in which it was detected.

The nature of data set [5]: occurrence of SCRAs in intoxication samples of the prospective study. Set-up: species or system human. The conditions noted are these: 2013 to 2021; for No. of intoxications: 139 intoxication samples of the prospective study; for Percentage in %: proportion of 139 intoxications in which the substance was detected.
Excerpt: For this study, the 10 SCRAs (AB‐[…], ADB‐[…], AB‐FUBINACA, FUB‐AMB, Cumyl‐PEGACLONE, MDMB‐4en‐PINACA, MDMB‐CHMICA, 5F‐MDMB‐PICA, 5F‐ADB and 5F‐PB‐22) which were most frequently detected in intoxications in a prospective observational study during the time period of 2013 to 2021 were selected (see Table 1). Additionally, JWH‐210, a model compound representative of the early SCRAs, along with two substances prevalent in screenings during years 2019/2020 (5F‐Cumyl‐PEGACLONE and 4F‐MDMB‐BICA), were included in this study (see Tables S2–S7). […] JWH‐018 was also included as a reference compound because of its historical use in this capacity. Including both reference compounds facilitates direct comparison with previously published data, thereby enhancing the relevance and interpretability of the results obtained in the present study. Information on the origin of the test and reference compounds and all chemicals used in this study can be found in Table S1.
as §1

Data set [6] has as its target T1, hCB1 receptor. To be noted: cited from earlier work; for EC50: read-out: βarr2 assay EC50 [nM] (95% CI); for βarr2 assay Emax [%] (95% CI): relative to CP‐55940.
Data set [7] deals with T1, hCB1 receptor. More on the design: method as in Gamage et al. [40]. The conditions noted are these: cited from earlier work.
[8] abbreviates: intoxication case B (AB‐CHMINACA).

Structures are written as SMILES. Where two headings read alike, the source gives them in different places. Marks after values point to notes of the source that are not given here. Bounds are passed on as bounds.

T1 sequence (P21554 whole entry): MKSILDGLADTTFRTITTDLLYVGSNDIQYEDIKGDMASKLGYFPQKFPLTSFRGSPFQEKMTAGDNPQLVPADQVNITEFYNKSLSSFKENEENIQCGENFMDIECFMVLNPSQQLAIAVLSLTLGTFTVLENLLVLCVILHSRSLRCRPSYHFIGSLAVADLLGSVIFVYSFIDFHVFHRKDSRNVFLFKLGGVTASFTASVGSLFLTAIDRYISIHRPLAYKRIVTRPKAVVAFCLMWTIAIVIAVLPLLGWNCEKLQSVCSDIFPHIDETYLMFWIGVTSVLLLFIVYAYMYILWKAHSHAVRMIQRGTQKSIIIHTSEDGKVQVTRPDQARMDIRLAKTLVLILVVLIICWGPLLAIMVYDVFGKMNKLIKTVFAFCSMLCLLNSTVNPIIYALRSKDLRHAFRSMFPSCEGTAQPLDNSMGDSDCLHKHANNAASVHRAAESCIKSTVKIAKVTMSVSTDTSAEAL

Turning to `CCCCCn1nc(C(=O)c2cccc3ccccc23)c2ccccc21` [THJ-018], in data set [1] (setting [8]), the Concentration in serum was less than 0.1 ng/mL.
Take `O=C(Oc1cccc2cccnc12)c1cn(CCCCCF)c2ccccc12` [5F‐PB‐22]: affinity in data set [2] was put at a Ki of 0.0996 nM. Besides, in data set [3], a half-maximal effect (EC50) was put at 2.73 nM and the Emax (in general, the maximal effect, on the per cent scale that the assay sets) was 124%. In data set [4], the “G total (risk score)” value is given as 9.9, the G2 is 1.9, the G3 was found to be 2.7 and the G1 came to 5.3. In data set [5], the No. of intoxications came out at 13 and the Percentage in % is 9.4%. In addition, the Concentration in serum in data set [1] (setting [8]) is reported as roughly 1.5 ng/mL. Besides, in data set [6] (ref Wouters et al. [31]), the EC50 – broadly, the concentration at which the effect is half-maximal – was 0.32 nM and the “βarr2 assay Emax [%] (95% CI)” value was 980.2 ^d (888.2–1072) %.
Regarding `COC(=O)C(NC(=O)c1nn(Cc2ccc(F)cc2)c2ccccc12)C(C)C` (centres unmarked) [FUB‐AMB], the EC50 in data set [7] (read-out: [35S]‐GTPγS assay EC50 [nM] (95% CI), ref Gamage et al. [40]) was 0.543 nM. For the same molecule, the “[35S]‐GTPγS assay Emax [%] (95% CI)” value in data set [7] (relative to CP‐55940, cell without footnote mark, EC50 of the same line from ref Gamage et al. [40]) is 69.42 (62.6–76.2) %.
Consider `O=C(NC12CC3CC(CC(C3)C1)C2)c1nn(CCCCCF)c2ccccc12` [5F-AKB-48], for which the Concentration in serum in data set [1] (setting [8]) was less than 0.1 ng/mL.
Same read-out and setting: as for `O=C(c1cccc2ccccc12)c1nn(CCCCCF)c2ccccc12` [THJ-2201], the figure is less than 0.1 ng/mL.
On to `CNC(C)C(=O)c1cccc(C)c1` (centres unmarked) [3‐MMC], for which the Concentration in serum is 320 ng/mL in data set [1] (intoxication case A (AB‐CHMINACA)) and ~3-MMC approximately 320 ng/mL in data set [1] (intoxication case A (AB‐CHMINACA), listed as 3-MMC).
Take `COC(=O)C(NC(=O)c1cn(CC2CCCCC2)c2ccccc12)C(C)(C)C` (centres unmarked) [MDMB‐CHMICA]: the affinity in data set [2], expressed as Ki, was 0.935 nM. Further, in data set [3], the concentration giving a half-maximal response (EC50) is 11.8 nM and the Emax was 103%. Besides, in data set [4], the “G total (risk score)” value is recorded as 5.7, the G2 is 2.2, the G3 stood at 2.8 and the G1 amounted to 0.73. Moreover, in data set [5], the No. of intoxications came to 31 and the Percentage in % came to 22%. Besides, in data set [6] (ref Wouters et al. [31]), the EC50 is 2.2 nM and the “βarr2 assay Emax [%] (95% CI)” value is on record as 885.7 (818.5–958.0) %.
With `COC(=O)C(NC(=O)c1cn(CCCCCF)c2ccccc12)C(C)(C)C` (centres unmarked) [5F‐MDMB‐PICA], in data set [2], the affinity, expressed as Ki, was 0.321 nM. Further, in data set [3], the EC50 is 7.88 nM and the Emax is 112%. Moreover, in data set [4], the “G total (risk score)” value came out at 8.1, the G2 is on record as 2.1, the G3 turned out to be 2.8 and the G1 came out at 3.2. Besides, in data set [5], the No. of intoxications is reported as 15 and the Percentage in % is reported as 11%. In addition, the EC50 in data set [6] (ref Noble et al. [30]) is 3.26 nM. Also, the “βarr2 assay Emax [%] (95% CI)” value in data set [6] (originally normalised to JWH‐018, corrected with factor 0.3268, ref Noble et al. [30]) is reported as 1014 (951.7–1075) ^a %.
